Experimental data published in patent US20220133650A1, “COMBINATION THERAPY FOR TREATMENT OF BRAIN DISORDERS” (B. G. NEGEV TECHNOLOGIES AND APPLICATIONS LTD., AT …, priority 2019, published 2022).

Experiments:
exposed rat cortex [1] = assay: Seizure (4AP)-induced BBB dysfunction, fluorescent angiography permeability index; type: in vivo, Sprague-Dawley rats; settings: 4AP-induced seizures (SE), NaFlu tracer, mean±SEM
rat brain [2] = assay: Contrast enhanced T1-weighted MRI after photo-induced thrombotic stroke, relative BBB dysfunction volume; type: in vivo; settings: 48 h following photothrombosis; osmotic pumps i.p.; memantine 40 mg/kg, losartan 60 mg/kg; mean±SEM
rat brain [3] = assay: T2-weighted MRI after photo-induced thrombotic stroke, relative lesion volume; type: in vivo; settings: 48 h following photothrombosis; osmotic pumps i.p.; memantine 40 mg/kg, losartan 60 mg/kg; mean±SEM
exposed rat cortex [4] = assay: Agonist-induced vascular permeability to NaFlu, agonists added to ACSF with neuronal activity blocked; type: in vivo, Sprague-Dawley rats; settings: neuronal activity and synaptic transmission blocked, mean±SEM
[5] = 30 min after adding the agonist to ACSF
[6] = 10 min after adding the agonist to ACSF

Molecule	shift in PI (BBB permeability index) from baseline (exposed rat cortex [1]; 10 min from seizure onset)	shift in PI (BBB permeability index) from baseline (exposed rat cortex [1]; 30 min from seizure onset)	relative BBB dysfunction volume (100*# BBBD voxels/# brain voxels) (rat brain [2])	relative lesion volume (100*# lesion voxels/# brain voxels) (rat brain [3])	shift in vascular permeability to NaFlu (PI shift from pre-substance application) (exposed rat cortex [4]; [5])	shift in vascular permeability to NaFlu (PI shift from pre-substance application) (exposed rat cortex [4]; [6])
N[C@H](CCCP(=O)(O)O)C(=O)O [AP5, D-(−)-2-amino-5-phosphonopentanoic acid]	−1.19±4.71%	18.78±6.93%				
CC12CC3CC(C)(C1)CC(N)(C3)C2 [memantine, 3,5-dimethyladamantan-1-amine]	3.14±3.1%	20.86±3.78%	15.03±1.83%	24.18±3.75%		
TGF-β1: transforming growth factor beta 1, 10 ng/ml added to the ACSF					15.3±7.62%	
angiotensin II (DRVYIHPF; Angiotensin-2; UniProt P01019 25-32, looked up) [ATII, angiotensin II, agonist added to the ACSF, 70 μM]					−12.33±3.45%	−4.11±3.35%
bovine-serum albumin: bovine serum albumin, 0.2 mM added to the ACSF					−0.33±8.36%	−2.55±4.6%
